Laboratory results as given in patent US7181271B2, “Synergism of photodynamic and electropermeation effect on cell vitality as a novel cytotoxic agent” (Genetronics, Inc., priority 2003, dated 2007).

Columns and labels:
U937 cells = assay: Cell viability by trypan blue exclusion after electroporation (250 V, 400 F) and 14 min irradiation; type: cell-based; details: for Total dead cells for exp. / Dead cells by pulse / Dead cells by light for control: 1 × 10^−5 M agent, 18–22 C; for Total dead cells for exp. / Dead cells by pulse / Dead cells by light for control / Final dead cells: exp/control: U937 cells; for Total dead cells for exp.: pulse 250 V plus 14 min irradiation; for Dead cells by pulse: single pulse 250 V (1.2 kV/cm), 400 F, 11–12 ms, 14 min irradiation; for Dead cells by light for control: unpulsed control, irradiated 14 min; for Final dead cells: exp/control: ratio of total dead cells (pulse + light) to dead cells by light only, 1 × 10^−5 M
[1] = type 1 photoreaction; cited from earlier work

| Structure (SMILES) | Total dead cells for exp. (U937 cells) [%] | Dead cells by pulse (U937 cells) [%] | Dead cells by light for control (U937 cells) [%] | Final dead cells: exp/control (U937 cells) | penetration and dark effect (without irradiation) (U937 cells; unpulsed U937 cells, without irradiation) | rate constant of oxidizing guanosine [1] [M⁻¹ s⁻¹] |
| --- | --- | --- | --- | --- | --- | --- |
| C=CC1=C(C)c2cc3[nH]c(cc4nc(cc5[nH]c(cc1n2)c(C)c5CCC(=O)O)C(CCC(=O)O)=C4C)c(C)c3C=C [PP, protoporphyrin] | 91.6 | 65.8 | 18.8 | 4.9 | – | – |
| COc1cccc2c1C(=O)c1c(O)c3c(c(O)c1C2=O)C[C@@](O)(C(C)=O)C[C@@H]3O[C@H]1C[C@H](N)[C@H](O)[C@H](C)O1 [DAM, daunomycin] | 87.5 | 63.4 | 17.6 | 4.9 | increases with time | – |
| CN(C)c1ccc2cc3ccc(=[N+](C)C)cc-3sc2c1.[Cl-] [TP, thiopyronin] | 98.6 | 80.3 | 20.1 | 4.9 | – | 3.8e+06 |
